In ChEMBL document CHEMBL5241104, “Reactive metabolites of the anticonvulsant drugs and approaches to minimize the adverse drug reaction” (Eur J Med Chem, 2021):

Columns and labels:
Mus musculus [1] = experiment: Anticonvulsant activity in Swiss albino mouse assessed as inhibition of maximal electroshock induced seizure at ip administration; type: functional
[2] = Toxicity in Swiss albino mouse assessed as lethality at 30 mg/kg,ip; type: organism-based; conditions: in vivo, read-out: Activity
[3] = Toxicity in Swiss CD-1 mouse assessed as mortality at 100 mg/kg,ip; type: organism-based; conditions: in vivo
Mus musculus [4] = experiment: Anticonvulsant activity in Swiss albino mouse brain assessed as increase in GABA level at 30 mg/kg,ip measured after 7 days of post-administration by spectrophotometric method; type: functional; conditions: time 7 day
Mus musculus [5] = experiment: Anticonvulsant activity in Swiss albino mouse assessed as protection against Sc-PTZ induced seizure at ip administration; type: functional
Mus musculus [6] = experiment: Anticonvulsant activity in Swiss albino mouse brain assessed as increase in GABA level at 30 mg/kg,ip measured after 2 hrs of post-administration by spectrophotometric method; type: functional
Mus musculus [7] = experiment: Anticonvulsant activity in Swiss albino mouse assessed as protection against maximal electroshock induced seizure at ip administration; type: functional
[8] = Toxicity in Swiss albino mouse assessed as median toxicity dose at ip administration; type: organism-based; conditions: in vivo
Rattus norvegicus [9] = species: Rattus norvegicus; experiment: Inhibition of sodium uptake in rat cerebral cortical synaptosomes at 100 uM incubated for 30 mins by scintillation counting analysis; type: functional; conditions: Cerebral cortex, Synaptosome
Rattus norvegicus [10] = experiment: Anticonvulsant activity in Wistar rat assessed as protection against maximal electroshock induced seizure at po administration; type: functional
Rattus norvegicus [11] = species: Rattus norvegicus; experiment: Inhibition of sodium uptake in rat cerebral cortical synaptosomes at 300 uM incubated for 30 mins by scintillation counting analysis; type: functional; conditions: Cerebral cortex, Synaptosome
Rattus norvegicus [12] = species: Rattus norvegicus; experiment: Inhibition of sodium uptake in rat cerebral cortical synaptosomes at 30 uM incubated for 30 mins by scintillation counting analysis; type: functional; conditions: Cerebral cortex, Synaptosome
[13] = Displacement of 3[H]BTX from rat cerebral cortical synaptosomes voltage-sensitive sodium channel incubated for 1.5 hrs by scintillation counting analysis; type: subcellular, Cerebral cortex, Synaptosome
Mus musculus [14] = experiment: Anticonvulsant activity in Swiss mouse assessed as protection against Sc-PTZ induced seizure at ip administration; type: functional
Mus musculus [15] = experiment: Anticonvulsant activity in Swiss albino mouse assessed as protection against Sc-PTZ induced seizure at po administration; type: functional
Mus musculus [16] = experiment: Anticonvulsant activity in mouse assessed as protection against maximal electroshock induced seizure at ip administration for 5 mins; type: functional
Mus musculus [17] = experiment: Anticonvulsant activity in Albino mouse brain assessed as increase in GABA level at 30 to 300 mg/kg,ip by spectrophotometric method; type: functional; conditions: dose 30-300 mg/kg
Rattus norvegicus [18] = experiment: Anticonvulsant activity against maximal electroshock induced seizure in Wistar albino rat assessed as reduction of time spent in extension phase at 10 mg/kg,ip administrated for 30 mins by electroconvulsive therapy; type: functional; design: scale not given: the % may be the effect or the level left; conditions: 0.5 h
Rattus norvegicus [19] = experiment: Anticonvulsant activity against maximal electroshock induced seizure in Wistar albino rat assessed as reduction of time spent in stupor phase at 10 mg/kg,ip administrated for 30 mins by electroconvulsive therapy; type: functional; design: scale not given: the % may be the effect or the level left; conditions: 0.5 h
Rattus norvegicus [20] = experiment: Anticonvulsant activity against maximal electroshock induced seizure in Wistar albino rat assessed as reduction of time spent in flexion phase at 10 mg/kg,ip administrated for 30 mins by electroconvulsive therapy; type: functional; design: scale not given: the % may be the effect or the level left; conditions: 0.5 h
Rattus norvegicus [21] = experiment: Anticonvulsant activity against maximal electroshock induced seizure in Wistar albino rat assessed as reduction of time spent in clonus phase at 10 mg/kg,ip administrated for 30 mins by electroconvulsive therapy; type: functional; design: scale not given: the % may be the effect or the level left; conditions: 0.5 h
Mus musculus [22] = experiment: Anticonvulsant activity in mouse assessed as inhibition of maximal electroshock induced seizure at 200 mg/kg,po administration for 120 mins; type: functional; conditions: 2 h
[23] = Protective index, ratio of TD50 for toxicity in Sc-PTZ induced Swiss albino mouse seizure model assessed as median neurotoxicity dose at po administration by rotorod test to ED50 for anticonvulsant activity in Swiss albino mouse assessed as protection against Sc-PTZ induced seizure at po administration; type: organism-based; conditions: in vivo, read-out: Ratio TD50/ED50

CCOc1cc(/C=C2/N=C(c3ccccc3)c3cc([N+](=O)[O-])ccc3NC2=O)ccc1O
inhibition (INH) (Mus musculus [1]): 75%

O=C1Nc2ccccc2C12Nc1ccccc1-c1nc(=O)c(-c3ccccc3)nn12 (stereo not given)
mortality [2]: 30%

CCOc1ccccc1N1CCN(CCCN2CCCC2=O)CC1
mortality [3]: 25%

O=C1N=C(N2C(=S)N=C(c3ccc(F)cc3)CC2c2ccc(O)cc2)CNN1 (stereo not given)
Activity (Mus musculus [4]): 78.96 µg
ED50 (Mus musculus [5]): 285 mg/kg
Activity (Mus musculus [6]): 77.42 µg
ED50 (Mus musculus [7]): 22.5 mg/kg
TD50 [8]: 389 mg/kg

CC(=O)OC1Cc2ccccc2N(C(N)=O)c2ccccc21 (stereo not given)
inhibition (Rattus norvegicus [9]): 61.8%
Activity (Rattus norvegicus [10]): 54.4%
inhibition (Rattus norvegicus [11]): 82.1%
inhibition (Rattus norvegicus [12]): 42.2%
IC50 [13]: 138 µM

CCCC(CCC)C(=O)[O-].[Na+] [VALPROATE SODIUM]
ED50 (Mus musculus [14]): 149 mg/kg
Activity (Mus musculus [15]): 83%

COc1ccccc1/C=C1/N=C(c2ccccc2)c2cc([N+](=O)[O-])ccc2NC1=O
inhibition (INH) (Mus musculus [1]): 69%

O=C(NC1CCCCC1)C(c1ccc(F)cc1)N1Cc2cnnn2-c2ccccc2C1=O (stereo not given)
Activity (Mus musculus [16]): 87.5%

O=C1NC(=O)C(c2ccccc2)(c2ccccc2)N1 [PHENYTOIN]
ED50 (Mus musculus [14]): > 300 mg/kg

O=C(NC1CCCCC1)C(c1ccc(Cl)cc1)N1Cc2cnnn2-c2ccccc2C1=O (stereo not given)
Activity (Mus musculus [16]): 100%

COc1ccc(/C=C2/N=C(c3ccccc3)c3cc([N+](=O)[O-])ccc3NC2=O)cc1O
inhibition (INH) (Mus musculus [1]): 70%

CN1C(=O)CC(=O)N(c2ccccc2)c2cc(Cl)ccc21 [CLOBAZAM]
Activity (Mus musculus [17]): 54.9 mg

CCCC(CCC)C(=O)N/N=C/c1cc(OC)ccc1OC
TD50 [8]: 457 mg/kg

COc1cc(C2CC(c3ccc(O)cc3)=NC(=S)N2C2=NC(=O)NNC2)ccc1O (stereo not given)
Activity (Mus musculus [4]): 91.47 µg
ED50 (Mus musculus [5]): 293 mg/kg
Activity (Mus musculus [6]): 86.17 µg
ED50 (Mus musculus [7]): 29.4 mg/kg
TD50 [8]: 412 mg/kg

CCN(CC)CN1C(=O)/C(=N\c2nnc(-c3cccc(Cl)c3Cl)c(/N=C3\C(=O)N(CN(CC)CC)c4ccc(Cl)cc43)n2)c2cc(Cl)ccc21
Activity (Rattus norvegicus [18]): 47.87%
Activity (Rattus norvegicus [19]): 30.21%
Activity (Rattus norvegicus [20]): 29.31%
Activity (Rattus norvegicus [21]): 39.4%

CNS(=O)(=O)OC[C@]12OC[C@@H]3OC(C)(C)O[C@@H]3C1OC(C)(C)O2 (stereo not given in full)
inhibition in vivo at 200 mg/kg (Mus musculus [22]): ≥ 80%

CCC(=O)CCCCCN1C(=O)NC2(C1=O)c1ccccc1-c1ccccc12
Activity (Mus musculus [15]): 100%

CCCC(CCC)C(=O)N/N=C/c1ccncc1
TD50 [8]: 346 mg/kg

O=C1Nc2ccc(Br)cc2C12Nc1ccccc1-c1nc(=O)c(-c3ccccc3)nn12 (stereo not given)
mortality [2]: 30%

COc1cc(/C=C2/N=C(c3ccccc3)c3cc([N+](=O)[O-])ccc3NC2=O)ccc1O
inhibition (INH) (Mus musculus [1]): 71%

CCCC(CCC)c1nnc(S)n1-c1ccccc1
TD50 [8]: 371 mg/kg

C=CCC(CC(C)C)C(=O)O (racemic)
selectivity ratio [23]: 3.2

COc1ccc(NC(=O)CN2C(=O)C3(Nc4ccccc4-c4nc(=O)c(C)nn43)c3ccccc32)cc1 (stereo not given)
mortality [2]: 20%

O=C(O)CCCCCn1c(-c2ccccc2)nc(-c2ccccc2)c1-c1ccccc1
Activity (Mus musculus [15]): 100%

CN1C(=O)CN=C(c2ccccc2)c2cc(Cl)ccc21 [DIAZEPAM]
Activity (Mus musculus [16]): 87.5%

C=C(C)CC(CCC)C(=O)O (racemic)
selectivity ratio [23]: 2.05

CC1(C)O[C@H]2CO[C@]3(COS(=O)(=O)N=[N+]=[N-])OC(C)(C)OC3[C@H]2O1 (stereo not given in full)
inhibition in vivo at 200 mg/kg (Mus musculus [22]): ≥ 80%

CC1(C)O[C@@H]2O[C@@]3(COS(N)(=O)=O)OC(C)(C)OC3[C@@H]2O1 (stereo not given in full)
inhibition in vivo at 200 mg/kg (Mus musculus [22]): ≥ 80%

O=C1CCCN1CC(O)CN1CCN(c2ccccc2O)CC1 (stereo not given)
mortality [3]: 14.2%

COc1ccccc1N1CCN(CCCN2CCCC2=O)CC1
mortality [3]: 25%

O=C1/C(=N\c2nnc(-c3cccc(Cl)c3Cl)c(/N=C3\C(=O)N(CN4CCOCC4)c4ccc(Cl)cc43)n2)c2cc(Cl)ccc2N1CN1CCOCC1
Activity (Rattus norvegicus [18]): 48.95%
Activity (Rattus norvegicus [19]): 34.16%
Activity (Rattus norvegicus [20]): 30.39%
Activity (Rattus norvegicus [21]): 40.55%
